# According to patent publication US20240228488A1 (TAKEDA PHARMACEUTICAL COMPANY LIMITED, priority 2021, published 2024):
# Target: human activated kallikrein enzyme (Homo sapiens, UniProt P03952)
# Experiment: Plasma kallikrein inhibition, fluorogenic PFR-AMC substrate, 500 pM activated kallikrein format
# Assay type: biochemical
# Conditions: 500 pM activated kallikrein, 300 uM PFR-AMC, 30 min preincubation, 10 min reaction; read-out: Primary Dose Response Assay: Average EC50
# How it was run: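 Fluorogenic readout (ex 380 / em 460 nm) after 10 min room-temperature reaction with 300 uM Pro-Phe-Arg-AMC substrate, following 30 min preincubation of inhibitors with 500 pM enzyme. Buffer: Tris pH 7.5, EDTA, NaCl, PEG-400, Triton X-100. Values given as EC50 ranges.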
# Sequence of human activated kallikrein enzyme (P03952 391-638 limits assumed): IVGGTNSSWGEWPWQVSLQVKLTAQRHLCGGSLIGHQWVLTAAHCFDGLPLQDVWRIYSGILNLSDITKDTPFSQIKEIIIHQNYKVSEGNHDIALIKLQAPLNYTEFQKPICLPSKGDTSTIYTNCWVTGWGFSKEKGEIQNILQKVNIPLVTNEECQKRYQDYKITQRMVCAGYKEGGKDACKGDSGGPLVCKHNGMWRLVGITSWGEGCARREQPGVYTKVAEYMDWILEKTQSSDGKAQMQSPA
# Sequence of human activated kallikrein enzyme (P03952 20-390 partner limits assumed): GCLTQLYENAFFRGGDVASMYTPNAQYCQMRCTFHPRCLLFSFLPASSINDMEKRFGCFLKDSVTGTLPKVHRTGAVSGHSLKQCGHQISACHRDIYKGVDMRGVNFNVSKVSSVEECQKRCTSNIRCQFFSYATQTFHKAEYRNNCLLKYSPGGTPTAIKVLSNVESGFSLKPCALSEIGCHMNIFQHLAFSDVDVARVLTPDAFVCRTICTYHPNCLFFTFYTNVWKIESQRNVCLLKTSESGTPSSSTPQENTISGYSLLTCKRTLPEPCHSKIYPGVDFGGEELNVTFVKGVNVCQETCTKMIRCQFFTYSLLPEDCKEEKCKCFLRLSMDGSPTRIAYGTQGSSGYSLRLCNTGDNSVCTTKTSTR
row,Compound,EC50
1,"O=C(Nc1noc(NCc2cn3cc(C4CC4)ccc3n2)n1)[C@H]1C[C@@H]1c1cccc(Cl)c1 [Example 615, (1S,2S)-2-(3-chlorophenyl)-N-(5-(((6-cyclopropylimidazo[1,2-a]pyridin-2-yl)methyl)amino)-1,2,4-oxadiazol-3-yl)cyclopropane-1-carboxamide]",1000 to 6000 nM
2,"COc1ccc(C#N)c([C@H]2C[C@@H]2C(=O)Nc2cc(NCc3cn4cc(C5CC5)ccc4n3)ncn2)c1F (racemic) [Example 314, rac-(1S*,2S*)-2-(6-cyano-2-fluoro-3-methoxyphenyl)-N-(6-(((6-cyclopropylimidazo[1,2-a]pyridin-2-yl)methyl)amino)pyrimidin-4-yl)cyclopropane-1-carboxamide]",10 to 100 nM
3,"O=C(Nc1cc(NCc2cn3cc(C4CC4)ccc3n2)ncn1)[C@H]1C[C@@H]1c1cccc(Cl)c1 (racemic) [Example 55, rac-(1S*,2S*)-2-(3-chlorophenyl)-N-(6-(((6-cyclopropylimidazo[1,2-a]pyridin-2-yl)methyl)amino)pyrimidin-4-yl)cyclopropane-1-carboxamide]",1 to 10 nM
4,"Cc1ccnc([C@H]2C[C@@H]2C(=O)Nc2cc(N[C@H](C)c3cn4cc(C(F)F)cc(N5CC(=O)N(C)C5=O)c4n3)ncn2)n1 [Example 417, (1S,2S)-N-(6-(((R)-1-(6-(difluoromethyl)-8-(3-methyl-2,4-dioxoimidazolidin-1-yl)imidazo[1,2-a]pyridin-2-yl)ethyl)amino)pyrimidin-4-yl)-2-(4-methylpyrimidin-2-yl)cyclopropane-1-carboxamide]",< 1 nM
5,"O=C(NCc1cn(Cc2cn3cc(C4CC4)ccc3n2)nn1)[C@H]1C[C@@H]1c1cccc(Cl)c1 (racemic) [Example 588, rac-(1S*,2S*)-2-(3-chlorophenyl)-N-((1-((6-cyclopropylimidazo[1,2-a]pyridin-2-yl)methyl)-1H-1,2,3-triazol-4-yl)methyl)cyclopropane-1-carboxamide]",10 to 100 nM
6,"Cc1ccnc([C@H]2C[C@@H]2C(=O)Nc2cc(N[C@H](C)c3cn4cc(C(C)(F)F)cc(N5CC(=O)N(C)C5=O)c4n3)ncn2)n1 [Example 531, (1S,2S)-N-(6-(((R)-1-(6-(1,1-difluoroethyl)-8-(3-methyl-2,4-dioxoimidazolidin-1-yl)imidazo[1,2-a]pyridin-2-yl)ethyl)amino)pyrimidin-4-yl)-2-(4-methylpyrimidin-2-yl)cyclopropane-1-carboxamide]",< 1 nM
7,"Cc1ccnc([C@H]2C[C@@H]2C(=O)Nc2cc(OC(C)c3cn4cc(C5CC5)cc(N5CCOC5=O)c4n3)cnn2)n1 (stereo partly drawn) [Example 37, (1S,2S)-N-(5-(1-(6-cyclopropyl-8-(2-oxooxazolidin-3-yl)imidazo[1,2-α]pyridin-2-yl)ethoxy)pyridazin-3-yl)-2-(4-methylpyrimidin-2-yl)cyclopropane-1-carboxamide]",< 1 nM
8,"O=C(Nc1cc(NCc2cn3cc(C4CC4)ccc3n2)ccn1)[C@@H]1C[C@H]1c1cccc(Cl)c1 (racemic) [Example 115, rac-(1S*,2S*)-2-(3-chlorophenyl)-N-(4-(((6-cyclopropylimidazo[1,2-a]pyridin-2-yl)methyl)amino)pyridin-2-yl)cyclopropane-1-carboxamide]",1 to 10 nM
9,"C#Cc1cccc([C@H]2C[C@@H]2C(=O)Nc2cc(N3C[C@@H](O)C[C@@H]3c3cn4cc(C5CC5)ccc4n3)ncn2)c1 [Example 486, (1S,2S)-N-(6-((2R,4S)-2-(6-cyclopropylimidazo[1,2-a]pyridin-2-yl)-4-hydroxypyrrolidin-1-yl)pyrimidin-4-yl)-2-(3-ethynylphenyl)cyclopropane-1-carboxamide]",1 to 10 nM

# Other lines, results leading:
row,EC50,Compound
1,< 1 nM,"Cc1ccnc([C@H]2C[C@@H]2C(=O)Nc2cc(C#N)cc(NCc3cn4cc(C5CC5)cc(N5CC(=O)N(C)C5=O)c4n3)c2)n1 [Example I-655, (1S,2S)—N-(3-cyano-5-(((6-cyclopropyl-8-(3-methyl-2,4-dioxoimidazolidin-1-yl)imidazo[1,2-a]pyridin-2-yl)methyl)amino)phenyl)-2-(4-methylpyrimidin-2-yl)cyclopropane-1-carboxamide]"
2,< 1 nM,"Cc1ccnc([C@H]2C[C@@H]2C(=O)Nc2nccn3nc(Cc4cn5cc(C6CC6)cc(N6CC(=O)N(C)C6=O)c5n4)cc23)n1 [Example I-649, (1S,2S)—N-(2-((6-cyclopropyl-8-(3-methyl-2,4-dioxoimidazolidin-1-yl)imidazo[1,2-a]pyridin-2-yl)methyl)pyrazolo[1,5-a]pyrazin-4-yl)-2-(4-methylpyrimidin-2-yl)cyclopropane-1-carboxamide]"
3,10 to 100 nM,"O=C(Nc1cc(NCc2cn3cc(C4CC4)ccc3n2)ncn1)[C@@]1(F)C[C@@H]1c1cccc(Cl)c1 (racemic) [Example I-184, rac-(1S*,2S*)-2-(3-chlorophenyl)-N-(6-(((6-cyclopropylimidazo[1,2-a]pyridin-2-yl)methyl)amino)pyrimidin-4-yl)-1-fluorocyclopropane-1-carboxamide]"
4,10 to 100 nM,"O=C(Nc1cc(NCc2cn3cc(C4CC4)ccc3n2)ncn1)[C@H]1C[C@@H]1c1cc(Cl)cs1 (racemic) [Example I-186, rac-(1S*,2S*)-2-(4-chlorothiophen-2-yl)-N-(6-(((6-cyclopropylimidazo[1,2-a]pyridin-2-yl)methyl)amino)pyrimidin-4-yl)cyclopropane-1-carboxamide]"
5,1 to 10 nM,"O=C1CN(c2cc(C3CC3)cn3cc(CNc4cc(NC(=O)[C@H]5C[C@@H]5c5cccc(Cl)c5)ncn4)nc23)CCN1 [Example I-149, (1S,2S)-2-(3-chlorophenyl)-N-(6-(((6-cyclopropyl-8-(3-oxopiperazin-1-yl)imidazo[1,2-a]pyridin-2-yl)methyl)amino)pyrimidin-4-yl)cyclopropane-1-carboxamide]"
6,10 to 100 nM,"O=C(Nc1cc(NCc2cn3cc(C4CC4)ccc3n2)ccn1)[C@H]1C[C@@H]1c1ccc(Cl)s1 (racemic) [Example I-218, rac-(1S*,2S*)-2-(5-chlorothiophen-2-yl)-N-(4-(((6-cyclopropylimidazo[1,2-a]pyridin-2-yl)methyl)amino)pyridin-2-yl)cyclopropane-1-carboxamide]"
7,< 1 nM,"CCOC(=O)c1cnc(NC(=O)[C@H]2C[C@@H]2c2nccc(C)n2)nc1OCc1cn2cc(C3CC3)cc(N3CC(=O)N(C)C3=O)c2n1 [Example I-654, ethyl 4-((6-cyclopropyl-8-(3-methyl-2,4-dioxoimidazolidin-1-yl)imidazo[1,2-a]pyridin-2-yl)methoxy)-2-((1S,2S)-2-(4-methylpyrimidin-2-yl)cyclopropane-1-carboxamido)pyrimidine-5-carboxylate]"
8,> 6000 nM,"O=C([C@H]1C[C@@H]1c1cccc(Cl)c1)N(O)c1cc(NCc2cn3cc(C4CC4)ccc3n2)ncn1 [Example I-175, (1S,2S)-2-(3-chlorophenyl)-N-(6-(((6-cyclopropylimidazo[1,2-a]pyridin-2-yl)methyl)amino)pyrimidin-4-yl)-N-hydroxycyclopropane-1-carboxamide]"
9,10 to 100 nM,"O=C(Nc1cc(NCc2cn3cc(C4CC4)cc(N4CC(F)C4)c3n2)ncn1)[C@H]1C[C@@H]1c1cccc(Cl)c1 [Example I-145, (1S,2S)-2-(3-chlorophenyl)-N-(6-(((6-cyclopropyl-8-(3-fluoroazetidin-1-yl)imidazo[1,2-a]pyridin-2-yl)methyl)amino)pyrimidin-4-yl)cyclopropane-1-carboxamide]"
